Measurements: patent US7598028B2, “Compositions and methods for detecting and treating prostate disorders” (The Regents of the University of Michigan, priority 2006, dated 2009)

What was measured:
Assay type in all cases: cell-based, human
[1] = tested on: EGR1 gene transcript; assay: Quantitative real-time PCR, EGR1 in LNCaP cells
Procedure: Quantitative Real-Time PCR. All quantitative real-time assays were conducted with an Applied Biosystems 7900HT instrument and reagents. Cells were grown to 70% confluence in […] dishes prior to RNA purification using the Trizol reagent (Invitrogen Life Technologies). Experiments utilizing U0126 were performed as above, except that cells were treated with DMSO (vehicle) or 5 uM U0126 for 2 hours, then grown in the presence or absence of CXCL12. For all experiments, one microgram of RNA was reverse transcribed by use of Superscript III reverse transcriptase (Invitrogen, Carlsbad, Calif.). The resulting cDNA was diluted 1:100. Real-time PCR was performed by use of Assays on Demand (Applied BioSystems, Foster City, Calif.) according to the manufacturer's instructions, except that Real Time Ready with Rox passive dye (QBioGene, Carlsbad, Calif.) was used in place of TaqMan Universal PCR Master Mix. […] Cycle numbers to threshold were calculated by subtracting averaged control from averaged experimental values, and Fold Gene Expression was calculated by raising […]. […]
Quantitative Real-Time PCR. All quantitative real-time assays were conducted as previously described with an Applied Biosystems 7900HT instrument and reagents (see, e.g., Begley L A, et al., J Biol. Chem. 2007 Sep. 14; 282(37):26767-74; herein incorporated by reference in its entirety). […]

[2] = tested on: BPH-1 prostate epithelial cells; assay: Proliferation assay, BPH-1; details: 0.001-1 nM CXCL5, p<0.05
Procedure: (§1) Proliferation Assays. Cellular proliferation was assessed after plating cells at 50,000 cell/well in triplicate in six well plates and counting cells after 24 and 96 hours of incubation as described previously (see, e.g., Begley L, et al., Genes Chromosomes Cancer. 2006 February; 45(2): 136-46; herein incorporated by reference in its entirety). To assess the effects of exogenous CXCL5 on cellular proliferation, recombinant human CXCL5 (R&D Systems, 254-X) was added at the desired concentration in 2 ml SF media (or 2 ml SF media alone for control) to each well. The cells were re-fed at 24 hours growth and counted at 24 and 96 hours growth. Cell counts were normalized to 50,000 cells at 24 hours to account for any plating discrepancies. Averages and standard deviations of cell number were calculated for each time point under each media condition. For the antibody blockade experiments, 10,000 cells per well were plated in triplicate in 24 well dishes and preincubated with mouse anti-human CXCR2 (Biosource AHR1532X) or mouse antihuman CXCR4 (BD Pharmingen 555971) at 1 ug/ml for 1 hour prior to CXCL5 addition. Cells were maintained in media containing appropriate antibodies for the entirety of the experiment and were counted at 24 and 96 hours as above.

[3] = tested on: 22Rv1 prostate epithelial cells; assay: Proliferation assay, 22Rv1; details: 0.001-1 nM CXCL5, p<0.05
Procedure: as §1

[4] = tested on: PC3 prostate epithelial cells; assay: Proliferation assay, PC3; details: 0.001-1 nM CXCL5, p<0.05
Procedure: as §1

[5] = tested on: ERK ½; assay: Western blot, ERK phosphorylation in LNCaP cells
Procedure: Western Blot Analysis. Cells were lysed, proteins resolved by electrophoresis, and electroblotting was carried out as described previously (see, e.g.; Chaib H, et al., 2001 Cancer Res. 61, 2390-2394; incorporated herein by reference in its entirety). Proteins were detected using antibodies against phospho-ERK½ (Cell Signaling #9101), total ERK½ (Cell Signaling #9102), CXCR4 (Abcam #ab2074), Elk-1 (Cell Signaling #9182), Phospho Elk-1 (Cell Signaling #9181), or beta-actin (Santa Cruz #sc-1615), in conjunction with an ECL detection system.
(§2) Western Blot and Protein Analysis. Cells were lysed, proteins resolved by electrophoresis, and electroblotting was carried out as described previously except that 20 ug protein was electrophoresed per gel lane for N15C6 cells and 100 ug protein for LNCaP cells (see, e.g., Begley L, et al., Aging Cell. 2005 December; 4(6):291-8; Begley L A, et al., J Biol. Chem. 2007 Sep. 14; 282(37):26767-74; each herein incorporated by reference in their entireties). Proteins were detected using antibodies against phospho-ERK½ (Cell Signaling #9101), total ERK½ (Cell Signaling, #9102), phospho-p65, (Rockland #100-401-264), total p65 (Rockland #100-4165), STAT3 (9139), phospho-STAT3 (9138), beta-actin (Santa Cruz #sc-1615), or tubulin (Upstate, #DM1A) in conjunction with an ECL detection system. Secondary antibodies included goat anti-rabbit (Cell Signaling, #7074) and goat anti-mouse (Santa Cruz, #SC-2005), and both were used at a 1:5000 concentration. Immunoblots shown are representative of triplicate experiments. Densitometric quantitation of immunoblot films was accomplished by scanning the original films and converting the .tiff files to grayscale. Images were inverted, and mean band intensities were measured using ImageJ (www, followed by, .nih.gov). The mean intensity of adjacent background was also measured for each band and subtracted from band intensity.

[6] = tested on: p65 subunit of NFkappaB; assay: Western blot, p65 phosphorylation in LNCaP cells
Procedure: as §2

[7] = tested on: STAT3; assay: Western blot, STAT3 phosphorylation in LNCaP cells; details: sub-nanomolar or nanomolar levels of CXCL5
Procedure: as §2

| Compound | effect on CXCL12-stimulated EGR1 gene transcription ([1]; 5 uM U0126 for 2 hours, then 50 pM CXCL12) | proliferation versus SF media alone [2] | proliferation versus SF media alone [3] | proliferation versus SF media alone [4] | ERK ½ phosphorylation ([5]; 10 pM or 100 pM CXCL5) | activation of ERK ½ ([5]; nanomolar levels of CXCL5) | phosphorylation of the p65 subunit of NFkappaB ([6]; 10 pM or 100 pM CXCL5) | activation of NFkappaB ([6]; nanomolar levels of CXCL5) | activation of STAT3 [7] | EGR1 transcript versus vehicle-treated cells ([1]; only at the lowest CXCL5 concentration (10 pM) tested) |
| --- | --- | --- | --- | --- | --- | --- | --- | --- | --- | --- |
| N#CC(=C(/N)Sc1ccccc1N)/C(C#N)=C(\N)Sc1ccccc1N [U0126] | ablates | – | – | – | – | – | – | – | – | – |
| CXCL5: recombinant human CXCL5 (R&D Systems, 254-X), CXC-type chemokine | – | significantly higher | significantly higher | significantly higher | rapidly and transiently phosphorylated | not evident | rapidly and transiently phosphorylated | not evident | not observed | 2- to 3 fold |
